# “Also recorded” adds a separate entry of the source. No end group written: not given here.
# How the values were obtained:
# rhinovirus = settings: Proud et al., J Immunol 172:4637-4645, 2004; cited from earlier work
# papillomavirus = settings: background literature; cited from earlier work
# adenovirus = settings: background literature; cited from earlier work
# rhinovirus (Rv16) = test: Rhinovirus (Rv16) infectivity: virus incubated with peptide, titer quantified by TCID50 assay using H1-HeLa cells; type: cell-based; settings: for concentration at which maximal efficacy was reached / reduction of rhinovirus titer at maximal efficacy: Rv16, 1 hour at 37° C.; for reduction of rhinovirus titer at maximal efficacy: at the concentration given under E5
# Experimental: To determine if β-defensins had antiviral activity against rhinovirus, recombinant human β-defensins (Peprotech, Rocky Hill, N.J.) were used in assays with rhinovirus (Rv16). Recombinant β-defensin proteins were diluted in PBS to the desired concentrations (0.25-1.25 μg/mL). Virus was added to each tube to a final volume of 40 μL and incubated for 1 hour at 37° C. plus 5% CO2. After incubation, 200 uL of cell culture media was added to each tube and viral titers were quantified in a 50% Tissue Culture Infectious Dose (TCID50) assay using H1-HeLa cells. The TCID50 assay is a standard endpoint dilution assay that is used to quantify how much of a given virus is present in a sample. The limit of detection for rhinovirus in the assay was 1.2 log10 TCID50.
# Human α-defensins and LL-37, a broadly expressed antimicrobial peptide from the cathelicidin family, were also tested for antiviral activity against rhinovirus. Recombinant human α-defensins (HNP-1, HNP-3 and HNP-5) (Pepnet, Louisville, Ky.) and recombinant LL-37 (Pepnet, Louisville, Ky.) were used in assays with rhinovirus (Rv16) to determine their antiviral activity. Recombinant HBD-3 (Peprotech, Rocky Hill, N.J.) was used as a control. The recombinant proteins were diluted in PBS to the desired concentrations (see FIG. 2). Virus was added to each tube to a final volume of 40 μL and incubated for 1 hour at 37° C. plus 5% CO2. After incubation, 200 μL of cell culture media was added to each tube and the concentration of virus was quantified by TCID50 assay using H1-HeLa cells. The limit of detection for rhinovirus in the assay was 1.2 log10 TCID50/mL.
Molecule,ability to inactivate rhinovirus (rhinovirus),antiviral activity against papillomavirus (papillomavirus),antiviral activity against adenovirus (adenovirus),"antiviral activity against rhinovirus (Rv16), in words (rhinovirus (Rv16); Example 1, FIG. 1)","antiviral activity against rhinovirus (Rv16), in words (rhinovirus (Rv16); Example 2, FIG. 2)","concentration at which maximal efficacy was reached (rhinovirus (Rv16); Example 2, FIG. 2) [µg/mL]","reduction of rhinovirus titer at maximal efficacy (rhinovirus (Rv16); Example 2, FIG. 2) [Log10 TCID50/mL]"
human β-defensin 2 [HBD-2],unable to inactivate rhinovirus,not,not,significantly reduced viral concentration; also recorded: exhibited antiviral activity,,,
human neutrophil peptide 3 [HNP-3],,,,,exhibited antiviral activity,2.5,2.3
"human β-defensin 1 (DHYNCVSSGGQCLYSACPIFTKIQGTCYRGKAKCCK; ends and bridges not checked; cysteine pairing not given here; UniProt P60022 33-68, looked up) [HBD-1, recombinant human β-defensin (Peprotech)]",,antiviral activity was observed,antiviral activity was observed,significantly reduced viral concentration; also recorded: exhibited antiviral activity,,,
"human β-defensin 3 (GIINTLQKYYCRVRGGRCAVLSCLPKEEQIGKCSTRGRKCCRRKK; ends and bridges not checked; cysteine pairing not given here; UniProt P81534 23-67, looked up) [HBD-3, recombinant human β-defensin (Peprotech)]",,,,significantly reduced viral concentration; also recorded: exhibited antiviral activity,most susceptible,,
human neutrophil peptide 1 [HNP-1],,antiviral activity was observed,antiviral activity was observed,,exhibited antiviral activity,5,1
"human β-defensin 4 (EFELDRICGYGTARCRKKCRSQEYRIGRCPNTYACCLRKWDESLLNRTKP; ends and bridges not checked; cysteine pairing not given here; UniProt Q8WTQ1 23-72, looked up) [HBD-4, recombinant human β-defensin (Peprotech)]",,,,significantly reduced viral concentration; also recorded: exhibited antiviral activity,,,
"human defensin 5 (ATCYCRTGRCATRESLSGVCEISGRLYRLCCR; ends and bridges not checked; cysteine pairing not given here; UniProt Q01523 63-94, looked up, fragment) [HD5, human α-defensin]",,antiviral activity was observed,antiviral activity was observed,,,,
"HNP-5: recombinant human α-defensin (Pepnet), α-5; probably human defensin 5 (HD5) (protein, UniProt Q01523 20-94, looked up, Defensin-5 recombinant) Defensin alpha 5: ESLQERADEATTQKQSGEDNQDLAISFAGNGLSALRTSGSQARATCYCRTGRCATRESLSGVCEISGRLYRLCCR",,,,,most effective; also recorded: exhibited antiviral activity,2,2.5

# Reference: patent US20130281361A1, “METHODS OF TREATING AND PREVENTING RHINOVIRUS INFECTION” (priority 2010, published 2013)
